Source: patent publication US20140315933A1, “CHEMICAL COMPOUNDS” (Pfizer Limited, priority 2013, published 2014)
Where a name gives a salt, the structure may show the parent alone.

Target: T1, URAT-1 transporter (Homo sapiens, UniProt Q96S37)
T1 construct: expressed in transfected cells
Experiment: URAT-1 inhibitor activity: [14C]-uric acid uptake into CHO-URAT1(L)GFP#8 (CHO#8) cells, scintillation proximity
Type: cell-based
Summary of the method: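 CHO cells stably expressing human URAT1 long isoform C-terminally fused to eGFP, preincubated 1 hour in chloride-containing buffer, then 15 minutes with compound (0–10 μM, 0.25% DMSO) in chloride-free buffer pH 7.4. [14C]-uric acid at 30 nM final added; uptake read by scintillation proximity after three hours at room temperature, dark.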

T1 sequence (Q96S37 with tags, fused parts or gaps): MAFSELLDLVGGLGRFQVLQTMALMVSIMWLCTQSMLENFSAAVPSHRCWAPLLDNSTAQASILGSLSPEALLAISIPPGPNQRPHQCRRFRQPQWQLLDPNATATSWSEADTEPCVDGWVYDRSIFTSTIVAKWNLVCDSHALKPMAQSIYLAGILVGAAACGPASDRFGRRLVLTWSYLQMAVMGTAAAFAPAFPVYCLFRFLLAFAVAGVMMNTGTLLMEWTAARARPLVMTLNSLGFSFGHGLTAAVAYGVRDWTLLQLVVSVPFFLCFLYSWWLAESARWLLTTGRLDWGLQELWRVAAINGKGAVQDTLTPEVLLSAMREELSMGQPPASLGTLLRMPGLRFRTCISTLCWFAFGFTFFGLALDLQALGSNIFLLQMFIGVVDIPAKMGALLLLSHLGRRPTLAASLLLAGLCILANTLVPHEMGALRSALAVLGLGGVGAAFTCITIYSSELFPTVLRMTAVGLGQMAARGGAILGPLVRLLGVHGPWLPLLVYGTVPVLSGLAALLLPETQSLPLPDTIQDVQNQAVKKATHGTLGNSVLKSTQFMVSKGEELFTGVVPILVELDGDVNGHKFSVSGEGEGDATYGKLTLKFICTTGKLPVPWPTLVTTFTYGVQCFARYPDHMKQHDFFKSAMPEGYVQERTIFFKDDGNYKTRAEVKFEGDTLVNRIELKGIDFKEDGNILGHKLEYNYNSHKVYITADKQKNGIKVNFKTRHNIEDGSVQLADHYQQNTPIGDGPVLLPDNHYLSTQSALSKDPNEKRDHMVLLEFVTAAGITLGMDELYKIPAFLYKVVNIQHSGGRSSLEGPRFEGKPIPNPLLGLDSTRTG

SMILES | IC50
Cc1ccc(Oc2ccc(S(=O)(=O)Nc3ncc(F)s3)cc2C#N)c(Cl)c1 [Example 124, 4-(2-chloro-4-methylphenoxy)-3-cyano-N-(5-fluoro-1,3-thiazol-2-yl)benzenesulfonamide] | > 6.36 µM
N#Cc1cc(S(=O)(=O)Nc2ncc(F)s2)ccc1Oc1cc(F)cc(Cl)c1 [Example 126, 4-(3-chloro-5-fluorophenoxy)-3-cyano-N-(5-fluoro-1,3-thiazol-2-yl)benzenesulfonamide] | 0.699 µM
Cc1cccc(Cl)c1Oc1ccc(S(=O)(=O)Nc2ncc(F)s2)cc1C#N [Example 127, 4-(2-chloro-6-methylphenoxy)-3-cyano-N-(5-fluoro-1,3-thiazol-2-yl)benzenesulfonamide] | 2.29 µM
N#Cc1cc(S(=O)(=O)Nc2ncc(F)s2)ccc1Oc1ccc(F)cc1Cl [Example 130, 4-(2-chloro-4-fluorophenoxy)-3-cyano-N-(5-fluoro-1,3-thiazol-2-yl)benzenesulfonamide] | 0.414 µM
N#Cc1cc(S(=O)(=O)Nc2ncc(F)s2)ccc1Oc1cccc(C(F)(F)F)c1 [Example 133, 3-cyano-N-(5-fluoro-1,3-thiazol-2-yl)-4-[3-(trifluoromethyl)phenoxy]benzenesulfonamide] | 1.58 µM
N#Cc1cc(S(=O)(=O)Nc2ncc(F)s2)ccc1Oc1cc(C(F)(F)F)ccc1F [Example 134, 3-cyano-N-(5-fluoro-1,3-thiazol-2-yl)-4-[2-fluoro-5-(trifluoromethyl)phenoxy]benzenesulfonamide] | 0.718 µM
CC(C)(O)c1cccc(Oc2ccc(S(=O)(=O)Nc3ncc(F)s3)cc2C#N)c1 [Example 135, 3-cyano-N-(5-fluoro-1,3-thiazol-2-yl)-4-[3-(2-hydroxypropan-2-yl)phenoxy]benzenesulfonamide] | 1.73 µM
CC(C)(C)c1cccc(Oc2ccc(S(=O)(=O)Nc3ncc(F)s3)cc2C#N)c1 [Example 137, 4-(3-tert-butylphenoxy)-3-cyano-N-(5-fluoro-1,3-thiazol-2-yl)benzenesulfonamide] | > 8.95 µM
N#Cc1cc(S(=O)(=O)Nc2ncc(F)s2)ccc1Oc1cc(C(F)(F)F)cc(C(F)(F)F)c1 [Example 138, 4-[3,5-bis(trifluoromethyl)phenoxy]-3-cyano-N-(5-fluoro-1,3-thiazol-2-yl)benzenesulfonamide] | 3.47 µM
N#Cc1cc(S(=O)(=O)Nc2ncc(F)s2)ccc1Oc1cc(F)cc(C(F)(F)F)c1 [Example 139, 3-cyano-N-(5-fluoro-1,3-thiazol-2-yl)-4-[3-fluoro-5-(trifluoromethyl)phenoxy]benzenesulfonamide] | 3.38 µM
N#Cc1cc(S(=O)(=O)Nc2ncc(F)s2)ccc1Oc1ccc(Cl)c(C(F)(F)F)c1 [Example 141, 4-[4-chloro-3-(trifluoromethyl)phenoxy]-3-cyano-N-(5-fluoro-1,3-thiazol-2-yl)benzenesulfonamide] | 0.737 µM
N#Cc1cc(S(=O)(=O)Nc2ncc(F)s2)ccc1Oc1ccc(F)c(C(F)(F)F)c1 [Example 143, 3-cyano-N-(5-fluoro-1,3-thiazol-2-yl)-4-[4-fluoro-3-(trifluoromethyl)phenoxy]benzenesulfonamide] | 0.566 µM
N#Cc1cc(S(=O)(=O)Nc2cscn2)ccc1Oc1ccc(Cl)cc1OC(F)F [Example 148, 4-[4-chloro-2-(difluoromethoxy)phenoxy]-3-cyano-N-(1,3-thiazol-4-yl)benzenesulfonamide] | 0.118 µM
COc1cc(Cl)ccc1Oc1cc(F)c(S(=O)(=O)Nc2nncs2)cc1Cl [Example 150, 5-chloro-4-(4-chloro-2-methoxyphenoxy)-2-fluoro-N-(1,3,4-thiadiazol-2-yl)benzenesulfonamide] | 2.51 µM
N#Cc1ccc(Oc2cc(F)c(S(=O)(=O)Nc3ncns3)cc2Cl)c(OC(F)F)c1 [Example 155, 5-chloro-4-[4-cyano-2-(difluoromethoxy)phenoxy]-2-fluoro-N-(1,2,4-thiadiazol-5-yl)benzenesulfonamide diethylamine salt] | > 7.25 µM
N#Cc1ccc(OC(F)F)c(Oc2cc(F)c(S(=O)(=O)Nc3ncns3)cc2Cl)c1 [Example 156, 5-chloro-4-[5-cyano-2-(difluoromethoxy)phenoxy]-2-fluoro-N-(1,2,4-thiadiazol-5-yl)benzenesulfonamide diethylamine salt] | 3.43 µM
COc1cc(Cl)cc(Cl)c1Oc1cc(F)c(S(=O)(=O)Nc2nncs2)cc1Cl [Example 157, 5-chloro-4-(2,4-dichloro-6-methoxyphenoxy)-2-fluoro-N-(1,3,4-thiadiazol-2-yl)benzenesulfonamide diethylamine salt] | 2.88 µM
O=S(=O)(Nc1cscn1)c1cc(Cl)c(Oc2cc(Cl)ccc2OC(F)F)cc1F [Example 158, 5-chloro-4-[5-chloro-2-(difluoromethoxy)phenoxy]-2-fluoro-N-(1,3-thiazol-4-yl)benzenesulfonamide] | 3.21 µM

Other lines, results leading:

IC50 | SMILES
1.04 µM | N#Cc1cc(S(=O)(=O)Nc2ncc(F)s2)ccc1Oc1ccc(F)c(F)c1F [Example 121, 3-cyano-N-(5-fluoro-1,3-thiazol-2-yl)-4-(2,3,4-trifluorophenoxy)benzenesulfonamide]
0.581 µM | COc1cc(F)cc(Oc2ccc(S(=O)(=O)Nc3ncc(F)s3)cc2C#N)c1 [Example 122, 3-cyano-4-(3-fluoro-5-methoxyphenoxy)-N-(5-fluoro-1,3-thiazol-2-yl)benzenesulfonamide]
1.25 µM | Cc1ccc(F)c(Oc2ccc(S(=O)(=O)Nc3ncc(F)s3)cc2C#N)c1F [Example 123, 3-cyano-4-(2,6-difluoro-3-methylphenoxy)-N-(5-fluoro-1,3-thiazol-2-yl)benzenesulfonamide]
0.551 µM | N#Cc1cc(S(=O)(=O)Nc2ncc(F)s2)ccc1Oc1c(F)cccc1Cl [Example 125, 4-(2-chloro-6-fluorophenoxy)-3-cyano-N-(5-fluoro-1,3-thiazol-2-yl)benzenesulfonamide]
1.19 µM | Cc1c(Oc2ccc(S(=O)(=O)Nc3ncc(F)s3)cc2C#N)ccc(F)c1F [Example 128, 3-cyano-4-(3,4-difluoro-2-(methylphenoxy)-N-5-fluoro-1,3-thiazol-2-yl)benzenesulfonamide]
0.48 µM | Cc1ccc(Cl)cc1Oc1ccc(S(=O)(=O)Nc2ncc(F)s2)cc1C#N [Example 129, 4-(5-chloro-2-methylphenoxy)-3-cyano-N-(5-fluoro-1,3-thiazol-2-yl)benzenesulfonamide]
0.297 µM | CCc1cc(F)ccc1Oc1ccc(S(=O)(=O)Nc2ncc(F)s2)cc1C#N [Example 131, 3-cyano-4-(2-ethyl-4-fluorophenoxy)-N-(5-fluoro-1,3-thiazol-2-yl)benzenesulfonamide]
2.6 µM | N#Cc1cccc(Oc2ccc(S(=O)(=O)Nc3ncc(F)s3)cc2C#N)c1 [Example 132, 3-cyano-4-(3-cyanophenoxy)-N-(5-fluoro-1,3-thiazol-2-yl)benzenesulfonamide]
0.464 µM | N#Cc1cc(S(=O)(=O)Nc2ncc(F)s2)ccc1Oc1cc(C(F)(F)F)ccc1Cl [Example 136, 4-[2-chloro-5-(trifluoromethyl)phenoxy]-3-cyano-N-(5-fluoro-1,3-thiazol-2-yl)benzenesulfonamide]
> 7.3 µM | N#Cc1cc(S(=O)(=O)Nc2ncc(F)s2)ccc1Oc1ccc(C#N)c(C(F)(F)F)c1 [Example 140, 3-cyano-4-[4-cyano-3-(trifluoromethyl)phenoxy]-N-(5-fluoro-1,3-thiazol-2-yl)benzenesulfonamide]
0.54 µM | CCc1cc(Oc2ccc(S(=O)(=O)Nc3ncc(F)s3)cc2C#N)ccc1Cl [Example 142, 4-(4-chloro-3-ethylphenoxy)-3-cyano-N-(5-fluoro-1,3-thiazol-2-yl)benzenesulfonamide]
0.803 µM | N#Cc1cc(S(=O)(=O)Nc2ncc(F)s2)ccc1Oc1ccc(CCO)cc1I [Example 145, 3-cyano-N-(5-fluoro-1,3-thiazol-2-yl)-4-[4-(2-hydroxyethyl)-2-iodophenoxy]benzene-sulfonamide]
> 10 µM | N#Cc1cc(S(=O)(=O)Nc2ncc(F)s2)ccc1Oc1ccc(CCO)cc1 [Example 146, 3-cyano-N-(5-fluoro-1,3-thiazol-2-yl)-4-[4-(2-hydroxyethyl)phenoxy]benzenesulfonamide]
> 10 µM | N#Cc1cc(S(=O)(=O)Nc2ncc(F)s2)ccc1Oc1ccc(CCCO)cc1 [Example 147, 3-cyano-N-(5-fluoro-1,3-thiazol-2-yl)-4-[4-(3-hydroxypropyl)phenoxy]benzenesulfonamide]
0.494 µM | O=S(=O)(Nc1cscn1)c1cc(Cl)c(Oc2ccc(F)cc2I)cc1F [Example 149, 5-chloro-2-fluoro-4-(4-fluoro-2-iodophenoxy)-N-(1,3-thiazol-4-yl)benzenesulfonamide]
0.508 µM | O=S(=O)(Nc1ncns1)c1cc(Cl)c(Oc2ccc(Cl)cc2OC(F)(F)F)cc1F [Example 151, 5-chloro-4-[4-chloro-2-(trifluoromethoxy)phenoxy]-2-fluoro-N-(1,2,4-thiadiazol-5-yl)benzenesulfonamide]
> 10 µM | O=S(=O)(Nc1nncs1)c1cc(Cl)c(Oc2ccc(Cl)cc2OC(F)F)cc1F [Example 152, 5-chloro-4-[4-chloro-2-(difluoromethoxy)phenoxy]-2-fluoro-N-(1,3,4-thiadiazol-2-yl)benzenesulfonamide]
1.63 µM | COc1cc(Cl)ccc1Oc1cc(F)c(S(=O)(=O)Nc2ncns2)cc1Cl [Example 154, 5-chloro-4-(4-chloro-2-methoxyphenoxy)-2-fluoro-N-(1,2,4-thiadiazol-5-yl)benzenesulfonamide]
0.499 µM | O=S(=O)(Nc1cscn1)c1cc(Cl)c(Oc2ccc(Cl)cc2OC(F)F)cc1F [Example 159, 5-chloro-4-[4-chloro-2-(difluoromethoxy)phenoxy]-2-fluoro-N-(1,3-thiazol-4-yl)benzenesulfonamide]
0.347 µM | O=S(=O)(Nc1cscn1)c1cc(Cl)c(Oc2cc(C(F)(F)F)ccc2I)cc1F [Example 160, 5-chloro-2-fluoro-4-[2-iodo-5-(trifluoromethyl)phenoxy]-N-(1,3-thiazol-4-yl)benzene-sulfonamide]
